Measurements reported in article PMC9369007 (International Journal of Molecular Sciences, 2022).

Columns and labels:
hMAO-B = biological target: T1, hMAO-B (Homo sapiens, UniProt P27338); assay: MAO activity screening, hMAO-B; type: biochemical; details: tyramine at 2 × KM (0.32 mM); two independent experiments
T1 sequence (P27338 1-520): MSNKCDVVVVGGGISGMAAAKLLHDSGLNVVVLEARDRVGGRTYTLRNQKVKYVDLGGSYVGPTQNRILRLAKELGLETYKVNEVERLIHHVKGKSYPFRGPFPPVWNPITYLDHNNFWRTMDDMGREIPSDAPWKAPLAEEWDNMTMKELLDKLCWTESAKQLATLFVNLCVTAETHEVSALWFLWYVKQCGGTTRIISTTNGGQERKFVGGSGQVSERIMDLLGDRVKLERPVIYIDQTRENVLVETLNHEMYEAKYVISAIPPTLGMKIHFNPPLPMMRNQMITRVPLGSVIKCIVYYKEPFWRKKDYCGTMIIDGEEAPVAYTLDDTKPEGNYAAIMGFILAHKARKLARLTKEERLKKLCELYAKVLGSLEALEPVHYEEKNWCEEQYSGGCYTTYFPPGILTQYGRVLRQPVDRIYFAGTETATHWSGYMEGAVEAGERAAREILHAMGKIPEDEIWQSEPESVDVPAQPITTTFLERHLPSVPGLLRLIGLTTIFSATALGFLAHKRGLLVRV
Description: (§1) Here, the potent selective compound 27 was screened for measuring target selectivity against high structural similar membrane-bound human hMAO-A and hMAO-B at 10 µM in the presence of tyramine at 2 × KM (0.8 mM for MAO-A and 0.32 mM for MAO-B) (Table 5).
(§2) The coupled assay approach was used to evaluate MAO activity in which the product, H2O2, acts with horseradish peroxidase to convert 10-acetyl-3,7-dihydroxyphenoxazine to the fluorescent resorufin. The percent inhibition was computed from the top and bottom of the resultant curve using the equation for a three-parameter curve in GraphPad Prism v. 4, (Graphstats, New York, NY, USA).

HepG2 and MCF-7 cells = assay: DNA fragmentation, diphenylamine test; type: cell-based, human; details: 24 h at IC50 value, untreated control about 4.7 ± 0.2%
Description: Apoptosis is characterized by DNA fragmentation, which occurs in all stages of the process. The percentage of fragmented DNA released into the cytoplasm from apoptotic nuclei was determined using a diphenylamine test.
DNA fragmentation was quantitatively determined using a diphenylamine (DPA) reagent according to the method of Boraschi and Maurizi.

MCF-7 cells [1] = assay: MTT cytotoxicity assay, MCF-7; details: Homo sapiens, MCF7, 72 h, read-out: In Vitro Cytotoxicity IC50 MCF-7
Description: (§4) The in vitro cytotoxic testing of novel derivatives was performed against different three cancer cell lines, HepG2, MCF-7, and HCT116, using standard MTT assay as previously reported [22, 62, 63, 64].

LSD1 demethylase = LSD1 demethylase (Homo sapiens, UniProt O60341); assay: LSD1 demethylase inhibition assay
Description: The inhibition of LSD1 activity by our tested compounds was evaluated according to a previously reported procedure [65, 66, 67, 68] and as mentioned in the assay kit in Supplementary Materials.

HepG2 cells = assay: MTT cytotoxicity assay, HepG2; details: Homo sapiens, HepG2, 72 h, read-out: In Vitro Cytotoxicity IC50 HepG2
Description: as §4

HCT116 cells = assay: MTT cytotoxicity assay, HCT116; details: Homo sapiens, HCT-116, 72 h, read-out: In Vitro Cytotoxicity IC50 HCT116
Description: as §4

hMAO-A = biological target: T2, hMAO-A (Homo sapiens, UniProt P21397); assay: MAO activity screening, hMAO-A; type: biochemical; details: tyramine at 2 × KM (0.8 mM); two independent experiments
T2 sequence (P21397 1-527): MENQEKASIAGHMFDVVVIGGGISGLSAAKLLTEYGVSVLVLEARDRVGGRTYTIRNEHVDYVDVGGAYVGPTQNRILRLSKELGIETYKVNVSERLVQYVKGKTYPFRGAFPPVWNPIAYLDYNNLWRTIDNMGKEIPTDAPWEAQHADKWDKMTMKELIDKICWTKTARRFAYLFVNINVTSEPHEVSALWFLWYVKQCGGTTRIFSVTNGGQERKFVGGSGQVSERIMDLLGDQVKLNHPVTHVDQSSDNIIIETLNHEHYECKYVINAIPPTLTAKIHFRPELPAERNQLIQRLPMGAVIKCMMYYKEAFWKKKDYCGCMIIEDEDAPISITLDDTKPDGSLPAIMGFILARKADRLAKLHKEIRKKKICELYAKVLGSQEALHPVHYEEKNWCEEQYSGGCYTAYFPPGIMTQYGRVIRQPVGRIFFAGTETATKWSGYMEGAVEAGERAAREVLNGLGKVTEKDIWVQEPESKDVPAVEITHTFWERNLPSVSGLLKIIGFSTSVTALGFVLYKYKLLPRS
Description: as §1, §2

MCF-7 cells [2] = assay: Cell cycle analysis by flow cytometry; type: cell-based, human; set-up: DNA Content %G0-G1 / DNA Content %S / DNA Content %G2-M / DNA Content %Pre G1: dose or concentration left out as unconfirmed; details: MCF-7, 24 h
Description: The cell cycle is a series of growth and development processes that culminate in DNA replication and cell division. G1 phase, S phase (synthesis), G2 phase, and M phase are the four different phases. We chose our promising chemical 27 based on the results of the MTT assay (Table 1) to further examine its effect on the apoptotic process and investigate its ability to play an active role in cell cycle progression in MCF-7 cells. MCF-7 cells were treated for 24 h with compound 27 at a concentration of […], and flow cytometry was performed in the presence of annexin V-FITC/PI.
(§3) Using the annexin V-FITC and PI apoptosis kit (eBioscience^TM, San Diego, CA, USA), the apoptosis detection was performed. MCF cells were plated onto a six-well plate at a 600,000 cells/mL density and then treated with compound 27 at […] after 24 h of incubation, and the assay was completed as previously described.
Cell cycle arrest and distribution was assessed, using the Propidium Iodide Flow Cytometry Kit (ab139418, Abcam, USA, CA, USA), followed by flow cytometry analysis according to the previous methodology.

in vitro = details: human, WI38 normal lung fibroblast cells
MCF-7 cells [3] = assay: Annexin V-FITC/PI dual staining apoptosis assay; type: cell-based, human; details: MCF-7, 2.0 µM, 24 h
Description: This test used the breast MCF-7 cell line to assess the percentage of apoptosis caused by compound 27, in which MCF-7 cells were treated with compound 27 at 2.0 µM concentration for 24 h to measure the percentage of apoptosis induced by compound 27. […] These findings are in line with statistics derived from DNA content.
Each sample’s histogram was separated into four quadrants to show viable (lower left quadrant), necrotic (higher left quadrant), apoptotic (lower right quadrant), and necrotic/late apoptotic (upper right quadrant) cells. The Annexin V Apoptosis Detection Kit is based on the finding that apoptotic cells can transport phosphatidylserine (PS) from the plasma membrane’s inner surface to the cell surface. As a result, the presence of PS on the cell surface is regarded as an important technique for detecting apoptotic cells. PS can be easily detected by labeling with a fluorescent compound of annexin V, a protein with a high affinity for PS, and then analyzing the results by flow cytometry. When annexin V and PI staining are performed simultaneously, the kit can distinguish between apoptosis and necrosis. Only when the plasma membrane is completely damaged may PI enter the cell. This allows early apoptotic cells (negative for PI but positive for PS) to be distinguished from late apoptotic and necrotic cells (positive for both PI and PS). […] Cells were tested using annexin V and PI double-staining flow cytometry, which detect both PS residues and DNA, respectively, to validate the potential to trigger apoptosis. They were then cultured for 24 h before being examined. The tested compound was able to produce considerable levels of cell death in a dose-dependent manner, according to analyses of early and late apoptosis (Table 4, Figure 2 and Figure 3).
as §3
The MCF-7 cells were treated with tested compounds 27 for 24 h and stained with annexin V-FITC/PI to detect externalization of PS from cell membrane and analyze apoptotic and necrotic cell population as previously described.

IC50 (hMAO-B): > 100 µM | IC50 (LSD1 demethylase; LSD1 inhibition IC50, as quoted in the docking section): 0.0464 µM | IC50 (LSD1 demethylase; LSD1 inhibitory IC50, Table 2, mean ± S.D., at least three tests): 0.046 ± 0.003 µM | IC50 (hMAO-A): 87.1 ± 2.36 µM | IC50 at 72 h (in vitro): > 85 µM
SMILES: C=CCNc1nnc(-c2cc(-c3nnc(NCC=C)s3)cc(-c3nnc(NCC=C)s3)c2)s1 [Compound 27, 5,5′,5″-(benzene-1,3,5-triyl)tris(N-allyl-1,3,4-thiadiazol-2-amine)]
Percentage of DNA fragmentation (HepG2 and MCF-7 cells): ~23 ± 1.2% | IC50 (MCF-7 cells [1]): 1.52 ± 1.02 µM | IC50 (HepG2 cells): 24.7 ± 1.01 µM | IC50 (HCT116 cells): 10.3 ± 0.15 µM | Comment (cell cycle) (MCF-7 cells [2]): pre G1 Apoptosis and cell cycle arrest at G2-M | DNA Content %G0-G1 (MCF-7 cells [2]): 35.15% | DNA Content %G2-M (MCF-7 cells [2]): 35.59% | DNA Content %Pre G1 (MCF-7 cells [2]): 37.11% | DNA Content %S (MCF-7 cells [2]): 28.26% | Apoptosis Early (MCF-7 cells [3]): 5.33% | Apoptosis Late (MCF-7 cells [3]): 20.53% | Apoptosis Total (MCF-7 cells [3]): 37.11% | Enhancement of late apoptosis compared with untreated cells (MCF-7 cells [3]): 114 fold | Necrosis (MCF-7 cells [3]): 11.25%
